In assay [1] the target is T1, Escherichia coli RNA polymerase (Escherichia coli, UniProt P0A8V2).
T1 construct: purchased Pharmacia, Uppsala, Sweden
The experiment in a line: Binding of RNA polymerase to the promoter sequence (protection of pDNAB-tac from BseRI cleavage, before addition of ribonucleotide triphosphates). Conditions: various concentrations of rifampicin, FIG. 14. The method, then:
The following experiment was conducted to measure the DNA-binding activity of RNA polymerase to its cognate nucleotide recognition sequence. The incubation buffer contained 50 mM tris HCI (pH 8), 5 mM MgCl2, 100 mM potassium glutamate, and 3, μg of pDNABtac DNA in 60 μL final volume. One to 9 units of RNA polymerase (Boehringer-Mannheim, Mannheim, Germany) were added and, after preincubation at 37° C. for 5 minutes, the reaction was cooled to 31° C.
In order to measure the inhibition of the initiation of transcription, the effect of various concentrations of rifampicin on the de-protection of the BseRI site was measured. Rifampicin is an antibiotic used in the therapy of bacterial infections (e.g. tuberculosis) and it specifically targets bacterial RNA polymerase, by inhibiting its transcription activity. […] After 5 minutes of incubation, rifampicin and BseRI were added and the amount of uncleaved plasmid was measured after 20 minutes of incubation at 37° C. The 4 ribonucleotide triphosphates were then added and the amount of uncleaved plasmid was measured again after 20 more minutes of incubation at 37° C.
The white bars represent the fluorescence units (i.e. the amount of uncleaved plasmid) before the addition of the 4 ribonucleoside triphosphates, while the hatched bars represent the fluorescence units left after addition of the 4 ribonucleotide triphosphates.

Assay [2] addresses T1, Escherichia coli RNA polymerase. As to the kind of experiment: Inhibition of initiation of transcription (de-protection of BseRI site of plasmid pDNAB-tac, ethidium bromide fluorescence). Type of assay: biochemical. Here is the method: In order to measure the initiation of transcription RNA polymerase was added to 0.5 μg of pDNAB-tac plasmid following the same procedure described above for the measurement of DNA-binding activity. The 4 ribonucleotide triphosphates (ATP, CTP, GTP and UTP) were then added to the reaction mixture followed by BseRI and the amount of CCC DNA left was measured after 20 minutes using ethidium bromide fluorescence as in Example 1. In the presence of the 4 ribonucleotide triphosphates the RNA polymerase starts polymerizing an RNA molecule and it moves away from the promoter sequence, thereby de-protecting the BseRI cleavage site. Cleavage at this site can take place then.
In order to measure the inhibition of the initiation of transcription, the effect of various concentrations of rifampicin on the de-protection of the BseRI site was measured. […] After 5 minutes of incubation, rifampicin and BseRI were added and the amount of uncleaved plasmid was measured after 20 minutes of incubation at 37° C. The 4 ribonucleotide triphosphates were then added and the amount of uncleaved plasmid was measured again after 20 more minutes of incubation at 37° C. […]
The relative effects of rifampicin on transcription was quantitated using the formula [formula] […]

The structures appear in SMILES notation.

`CO[C@H]1/C=C/O[C@@]2(C)Oc3c(C)c(O)c4c(O)c(c(/C=N/N5CCN(C)CC5)c(O)c4c3C2=O)NC(=O)/C(C)=C\C=C\[C@H](C)[C@H](O)[C@@H](C)[C@@H](O)[C@@H](C)[C@H](OC(C)=O)[C@@H]1C` [rifampicin]: the “inhibition of the binding of RNA polymerase to the promoter sequence” value in assay [1] is recorded as “not of the binding of RNA polymerase to the promoter sequence”. The Ki in assay [2] (Michaelis-Menten fit of % inhibition, rifampicin 0.2 μM to 3.2 μM, plasmid pDNAB-tac, 37° C., read-out: apparent Ki of rifampicin (inhibition of initiation of transcription activity)) was 2800 nM. For the same molecule, the “inhibition of the transcription initiation activity” value in assay [2] (various concentrations of rifampicin, with the 4 ribonucleotide triphosphates, FIG. 14) is listed as “dose-dependent inhibition”.

(Values after patent US6284468A, “Composition and methods for determining the activity of DNA-binding proteins and of initiation of trascription” (Dnab Diagnostics, Inc., priority 2000, dated 2001).)
